Assay results as given in BigSolDB 2.1.

Cc1c(N(C)CS(=O)(=O)[O-])c(=O)n(-c2ccccc2)n1C.O.[Na+]
solubility (mole fraction)
Conditions	in acetone	in ethanol	in ethyl acetate	in isopropanol	in methanol	in methyl acetate	in n-butanol	in n-propanol	in sec-butanol	in water
293.15 K	0.0001	0.0032	0.0001	0.0003	0.0278	0.0001	0.0003	0.0011	0.0002	0.0538
298.15 K	0.0001	0.0037	0.0001	0.0004	0.0318	0.0001	0.0004	0.0013	0.0003	0.0576
303.05 K	0.0002	0.0042	0.0001	0.0005	0.0363	0.0001	0.0005	0.0016	0.0004	0.0615
308.05 K	0.0002	0.0049	0.0002	0.0006	0.0408	0.0001	0.0007	0.0019	0.0006	0.0656
313.05 K	0.0003	0.0056	0.0002	0.0008	0.0475	0.0002	0.0009	0.0023	0.0007	0.0697
318.05 K	0.0003	0.0064	0.0003	0.0009	0.0521	0.0002	0.0012	0.0028	0.001	0.0738
323.05 K	0.0004	0.0073	0.0003	0.0011	0.058	0.0003	0.0015	0.0034	0.0013	0.0782
327.95 K	0.0005	0.0082	0.0004	0.0014	0.0634	0.0004	0.0019	0.004	0.0016	0.0825
332.85 K	0.0006	0.0092	0.0005	0.0016	0.0688	0.0005	0.0024	0.0047	0.0021	0.087
